In the assay the target is rat mGlu2 (Rattus norvegicus (Rat), UniProt P31421). The experiment in a line: mGlu2 Ca2+ flux assay. The class given is cell-based. Particulars: for IC50: Gα15 HEK293 cells stably expressing rat mGlu2, glutamate EC80, >10,000 = no plateau, >30,000 = no measurable activity; for remaining activity at 30 µM: read-out: rat mGlu2 Glu max. As for the experimental part: Gα15 HEK293 cells stably expressing rat mGlu2 were plated in black-walled, clear-bottomed, poly-D-lysine coated 384-well plates in 20 μL of assay medium (DMEM containing 10% dialyzed FBS, 20 mM HEPES, and 1 mM sodium pyruvate) at a density of 12K cells/well. The cells were grown overnight at 37° C. in the presence of 5% CO2. The next day, medium was removed and the cells incubated with 20 μL of 2.3 μM Fluo-4, AM prepared as a 2.3 mM stock in DMSO and mixed in a 1:1 ratio with 10% (w/v) pluronic acid F-127 and diluted in assay buffer (Hank's balanced salt solution, 20 mM HEPES, and 2.5 mM probenecid) for 45 minutes at 37° C. Dye was removed, 20 μL of assay buffer was added, and the plate was incubated for 5 minutes at room temperature.
Chain of rat mGlu2 (P31421 19-872): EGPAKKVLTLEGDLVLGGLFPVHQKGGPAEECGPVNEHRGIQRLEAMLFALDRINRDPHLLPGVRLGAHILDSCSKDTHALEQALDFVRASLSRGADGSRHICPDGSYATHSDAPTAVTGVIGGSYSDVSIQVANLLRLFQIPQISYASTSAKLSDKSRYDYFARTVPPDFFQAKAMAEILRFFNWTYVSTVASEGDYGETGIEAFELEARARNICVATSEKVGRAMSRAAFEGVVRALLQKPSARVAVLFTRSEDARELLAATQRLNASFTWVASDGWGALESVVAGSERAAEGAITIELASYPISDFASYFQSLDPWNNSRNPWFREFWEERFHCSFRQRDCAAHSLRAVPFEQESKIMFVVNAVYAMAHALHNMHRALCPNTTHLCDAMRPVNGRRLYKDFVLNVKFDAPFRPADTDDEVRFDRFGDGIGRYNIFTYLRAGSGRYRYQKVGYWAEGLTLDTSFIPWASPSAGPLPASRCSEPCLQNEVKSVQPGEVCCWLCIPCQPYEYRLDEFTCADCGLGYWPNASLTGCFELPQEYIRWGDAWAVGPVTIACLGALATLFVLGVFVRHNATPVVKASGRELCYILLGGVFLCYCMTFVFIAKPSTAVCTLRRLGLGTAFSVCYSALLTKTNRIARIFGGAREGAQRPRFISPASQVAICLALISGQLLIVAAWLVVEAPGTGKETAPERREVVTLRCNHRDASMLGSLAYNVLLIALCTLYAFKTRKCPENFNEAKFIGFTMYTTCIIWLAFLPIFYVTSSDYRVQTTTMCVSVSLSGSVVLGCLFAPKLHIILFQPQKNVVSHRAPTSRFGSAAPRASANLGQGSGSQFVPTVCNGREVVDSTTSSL
Ca^2+ flux was measured using the Functional Drug Screening System (FDSS7000, Hamamatsu, Japan). After establishment of a fluorescence baseline for about 3 seconds, the compounds of the present invention were added to the cells, and the response in cells was measured. 2.3 minutes later an EC20 concentration of the mGlu2 receptor agonist glutamate was added to the cells, and the response of the cells was measured for 1.9 minutes; an EC80 concentration of agonist was added and readings taken for an additional 1.7 minutes. All test compounds were dissolved and diluted to a concentration of 10 mM in 100% DMSO. Compounds were then serially diluted 1:3 in DMSO into 10 point concentration response curves, transferred to daughter plates, and further diluted into assay buffer to a 2× stock. Calcium fluorescence measures were recorded as fold over basal fluorescence; raw data was then normalized to the maximal response to glutamate. Antagonism of the agonist response of the mGlu2 receptor in the present invention was observed as a decrease in response to nearly maximal concentrations of glutamate in the presence of compound compared to the response to glutamate in the absence of compound.
The raw data file containing all time points was used as the data source in the analysis template. This was saved by the FDSS as a tab-delimited text file. Data were normalized using a static ratio function (F/F0) for each measurement of the total 360 values per well divided by each well's initial value. Data were then reduced to peak amplitudes (Max−Initial Min) using a time range that starts approximately 3 seconds prior to the glutamate EC80 addition and continues for approximately 90 seconds. This is sufficient time to capture the peak amplitude of the cellular calcium response. Individual amplitudes were expressed as % ECMax by multiplying each amplitude by 100 and then dividing the product by the mean of the amplitudes derived from the glutamate ECMax-treated wells. IC50 values for test compounds were generated by fitting the normalized values versus the log of the test compound concentration (in mol/L) using a 4 parameter logistic equation where none of the parameters were fixed. Each of the three values collected at each concentration of test compound were weighted evenly.
For NAMs, potency (IC50) and maximum response (% Glu Max), i.e. the amplitude of response in the presence of 30 μM test compound as a percentage of the maximal response to glutamate, are reported. […] Compounds with no measurable activity are designated as “>30,000 nM” since the top concentration of compound tested in the assay is 30 μM.

The mark [1] stands for this setting: amplitude of response in the presence of 30 μM test compound as percentage of maximal response to glutamate.

By IC50 is commonly meant the midpoint of a concentration-inhibition curve. Read a high IC50 as weaker potency. With `N#Cc1cc(-c2ccc(F)cc2)c(OCc2ccnc(C(F)(F)F)c2)cn1` [Compound 20, 4-(4-fluorophenyl)-5-((2-(trifluoromethyl)pyridin-4-yl)methoxy)picolinonitrile], the IC50 is greater than 10000 nM. The remaining activity at 30 µM under setting [1] stood at 37.9%.
In turn, `C[C@@H]1CN(CCOc2cnc(C#N)cc2-c2ccc(F)cc2)C[C@H](C)O1` [Compound 70, 5-(2-((cis)-2,6-Dimethylmorpholino)ethoxy)-4-(4-fluorophenyl)picolinonitrile] yielded an IC50 greater than 30000 nM.
As to `NC(=O)c1cc(-c2ccc(F)cc2)c(OCc2cc(F)cc(F)c2)cn1` [Compound 30, 5-((3,5-difluorobenzyl)oxy)-4-(4-fluorophenyl)picolinamide], the IC50 is 401 nM. In addition, the remaining activity at 30 µM under setting [1] was determined as 18.7%. For the same molecule, the NAM designation entry (concentration-dependent decrease in the glutamate EC80 response) is recorded as “(Partial NAM)”.
Take `N#Cc1cc(-c2ccc(F)cc2)c(NCCCN2CCOCC2)cn1` [Compound 6, 4-(4-fluorophenyl)-5-((3-morpholinopropyl)amino)picolinonitrile]: the IC50 was greater than 10000 nM. The remaining activity at 30 µM under setting [1] amounted to 49.2%.
On to `NC(=O)c1cc(-c2ccc(F)cc2)c(OCc2cccnn2)cn1` [Compound 49, 4-(4-fluorophenyl)-5-(pyridazin-3-ylmethoxy)picolinamide], for which half-maximal inhibition (IC50) required 1470 nM. Further, the remaining activity at 30 µM under setting [1] is -0.08%.
In the same order, the values of `NC(=O)c1cc(-c2ccc(F)cc2)c(COc2cc(F)cc(F)c2)cn1` [Compound 90, 5-((3,5-difluorophenoxy)methyl)-4-(4-fluorophenyl)picolinamide] are 2030 nM and 0.21%.
In the case of `NC(=O)c1cc(-c2ccc(F)cc2)c(OCCOCc2ccccc2)cn1` [Compound 130, 5-(2-(benzyloxy)ethoxy)-4-(4-fluorophenyl)picolinamide], it took 2250 nM to reach half-maximal inhibition (IC50). In addition, the remaining activity at 30 µM under setting [1] turned out to be 9.91%.
In the same order, the values of `Cc1ccc(OC(C)COc2cnc(C#N)cc2-c2ccc(F)cc2)cn1` (centres unmarked) [Compound 62, 4-(4-fluorophenyl)-5-(2-((6-methylpyridin-3-yl)oxy)propoxy)picolinonitrile] are 4630 nM and 35.8%.
The molecule `Cc1ccc(COc2cnc(C(N)=O)cc2-c2ccc(C(F)(F)F)nc2)cn1` [Compound 84, 5′-((6-methylpyridin-3-yl)methoxy)-6-(trifluoromethyl)-[3,4′-bipyridine]-2′-carboxamide] came in with an IC50 greater than 30000 nM.
As to `NC(=O)c1cc(-c2ccc(F)cc2)c(OCCOc2ccc(F)nc2)cn1` [Compound 113], half-maximal inhibition (IC50) was put at 502 nM. The “rat mGlu2 Glu max” value under setting [1] is given as 1.38 (n = 2) %.
`NC(=O)c1cc(-c2ccc(F)cc2)c(OCCOc2ccccc2Br)cn1` [Compound 105, 5-(2-(2-bromophenoxy)ethoxy)-4-(4-fluorophenyl)picolinamide] registered an IC50 greater than 30000 nM.
For the molecule `CC(Oc1cnc(C#N)cc1-c1ccc(F)cc1)c1cccnc1` (centres unmarked) [Compound 16, 4-(4-fluorophenyl)-5-(1-(pyridin-3-yl)ethoxy)picolinonitrile], the IC50 is greater than 30000 nM.
Turning to `NC(=O)c1cc(-c2ccc(F)cc2)c(N2CC(Oc3cccnc3)C2)cn1` [Compound 143, 4-(4-fluorophenyl)-5-(3-(pyridin-3-yloxy)azetidin-1-yl)picolinamide], half-maximal inhibition (IC50) required 2030 nM. Moreover, under setting [1], the remaining activity at 30 µM was 7.01%.
In the case of `N#Cc1cc(-c2ccc(F)cc2)c(OCC2CCOCC2)cn1` [Compound 9, 4-(4-fluorophenyl)-5-((tetrahydro-2H-pyran-4-yl)methoxy)picolinonitrile], the IC50 is greater than 30000 nM.
The molecule `NC(=O)c1cc(-c2ccc(F)cc2)c(OC2CCN(c3ccnc(C(F)(F)F)c3)CC2)cn1` [Compound 56, 4-(4-fluorophenyl)-5-((1-(2-(trifluoromethyl)pyridin-4-yl)piperidin-4-yl)oxy)picolinamide] returned an IC50 of 4190 nM. For the same molecule, the remaining activity at 30 µM under setting [1] worked out at 4.5%.
In the same order, the values of `NC(=O)c1cc(-c2ccc(F)cc2)c(OCc2ccc(Br)cc2)cn1` [Compound 33, 5-((4-bromobenzyl)oxy)-4-(4-fluorophenyl)picolinamide] are 1690 nM and 2.29%.
`N#Cc1cc(-c2ccc(F)cc2)c(OCCCOc2cccnc2)cn1` [Compound 65, 4-(4-fluorophenyl)-5-(3-(pyridin-3-yloxy)propoxy)picolinonitrile]: the IC50 is greater than 10000 nM. Moreover, the remaining activity at 30 µM under setting [1] was 68.8%.
Turning to `N#Cc1cccc(OCCOc2cnc(C(N)=O)cc2-c2ccc(F)cc2)c1F` [Compound 155, 5-(2-(3-cyano-2-fluorophenoxy)ethoxy)-4-(4-fluorophenyl)picolinamide], inhibition was half-maximal at 528 nM (IC50). The remaining activity at 30 µM under setting [1] was found to be 1.07%.
For `Cc1ccc(OC(C)COc2cnc(C(N)=O)cc2-c2ccc(F)cc2)cn1` (centres unmarked) [Compound 121, 4-(4-fluorophenyl)-5-(2-((6-methylpyridin-3-yl)oxy)propoxy)picolinamide] the same measures were 2130 nM and 1.66%.
In the same order, the values of `CC1(C)CN(CCCOc2cnc(C(N)=O)cc2-c2ccc(F)cc2)CCO1` [Compound 98, 5-(3-(2,2-dimethylmorpholino)propoxy)-4-(4-fluorophenyl)picolinamide] are 3250 nM and 0.97%.
In turn, `COc1ccc(-c2cc(C(N)=O)ncc2OCc2ccc(C(F)(F)F)nc2)c(F)c1` [Compound 86, 4-(2-fluoro-4-methoxyphenyl)-5-((6-(trifluoromethyl)pyridin-3-yl)methoxy)picolinamide] registered an IC50 of 440 nM. Besides, the remaining activity at 30 µM under setting [1] was 1.16%.
For `NC(=O)c1cc(-c2ccc(C(F)(F)F)nc2)c(OCc2cc(F)cc(F)c2)cn1` [Compound 32, 5′-((3,5-difluorobenzyl)oxy)-6-(trifluoromethyl)[3,4′-bipyridine]-2′-carboxamide] the same measures were greater than 10000 nM and 35.1%.
In the same order, the values of `NC(=O)c1cc(-c2ccc(F)cc2)c(OCc2ccncc2)cn1` [Compound 44, 4-(4-fluorophenyl)-5-(pyridin-4-ylmethoxy)picolinamide] are 239 nM and 0.42%.
Molecule `N#Cc1cc(-c2ccc(F)cc2)c(OC2CN(c3ccnc(C(F)(F)F)c3)C2)cn1` [Compound 28, 4-(4-fluorophenyl)-5-((1-(2-(trifluoromethyl)pyridin-4-yl)azetidin-3-yl)oxy)picolinonitrile] yielded an IC50 greater than 30000 nM.
In turn, `NC(=O)c1cc(-c2ccc(F)cc2)c(OCCCN2CCOCC2)cn1` [Compound 100, 4-(4-fluorophenyl)-5-(3-morpholinopropoxy)picolinamide] had an IC50 greater than 10000 nM. Under setting [1], the remaining activity at 30 µM stood at 46.8%.
The molecule `CC(COc1cnc(C(N)=O)cc1-c1ccc(F)cc1)Oc1ccnc(C(F)(F)F)c1` (centres unmarked) [Compound 124, 4-(4-fluorophenyl)-5-(2-((2-(trifluoromethyl)pyridin-4-yl)oxy)propoxy)picolinamide] displayed a concentration for half-maximal inhibition (IC50) of 835 nM. Further, under setting [1], the remaining activity at 30 µM amounted to 0.75%.
For `C[C@@H]1CN(CCCOc2cnc(C(N)=O)cc2-c2ccc(F)cc2)C[C@H](C)O1` [Compound 99, 5-(3-((cis)-2,6-dimethylmorpholino)propoxy)-4-(4-fluorophenyl)picolinamide] the same measures were greater than 10000 nM and 15.8%.
The molecule `NC(=O)c1cc(-c2ccc(F)cc2)c(OCc2ccc(Cl)nc2)cn1` [Compound 8, 5-((6-chloropyridin-3-yl)methoxy)-4-(4-fluorophenyl)picolinamide] came in with an IC50 of 429 nM. The remaining activity at 30 µM under setting [1] was found to be 2%.
For `NC(=O)c1cc(-c2ccc(F)cc2)c(OCCOc2ccnc(C(F)(F)F)c2)cn1` [Compound 116, 4-(4-fluorophenyl)-5-(2-((2-(trifluoromethyl)pyridin-4-yl)oxy)ethoxy)picolinamide] the same measures were 242 ± 83 nM and 1.51 ± 0.16%.

Values taken from patent US10538491B2, “4,5-substituted picolinamide and picolinonitrile metabotropic glutamate receptor 2 negative allosteric modulators” (Vanderbilt University, priority 2015, dated 2020).
